Measurements reported in patent publication US4435404A, “Carbostyril derivatives” (priority 1980, dated 1984).
Read-outs that look alike come from different tables or passages of the source.

Key:
[1] = test system: collagen-induced aggregation in rabbit platelet; assay: Inhibition effect on collagen-induced aggregation in rabbit platelet; format: cell-based; conditions: Oryctolagus cuniculus, Platelet, read-out: Inhibition effect on collagen-induced aggregation
Procedure, shortened: (§1)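 Citrated rabbit PRP was diluted with PPP to 300,000 platelets/mm^3 for the ADP test or 450,000/mm^3 for the collagen test. Samples were preincubated with compound for 1 min at 37 °C before adding inducer: ADP solution at 7.5×10^-5 M (stock) or collagen supernatant. Light-transmittance aggregation was recorded at 1,100 rpm stirring, and percent inhibition was calculated against control aggregation rate, with acetylsalicylic acid as reference.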

[2] = test system: ADP-induced aggregation in rabbit platelet; assay: Inhibition effect on ADP-induced aggregation in rabbit platelet; format: cell-based; conditions: Oryctolagus cuniculus, Platelet; for inhibition at 100 µM: concentration of the test compound solution 10^-4 mole
Procedure, shortened: as §1

[3] = target: T1, cyclic AMP phosphodiesterase (Oryctolagus cuniculus, UniProt G1ST54); assay: Obstructive action against cyclic AMP phosphodiesterase; format: biochemical; conditions: rabbit platelet enzyme, 30° C., 20 minutes
T1 construct: the supernatant was collected to use it as a crude enzyme solution; from tissue; host or cells: rabbit platelets (from platelet-rich plasma)
T1 sequence (G1ST54 1-1128): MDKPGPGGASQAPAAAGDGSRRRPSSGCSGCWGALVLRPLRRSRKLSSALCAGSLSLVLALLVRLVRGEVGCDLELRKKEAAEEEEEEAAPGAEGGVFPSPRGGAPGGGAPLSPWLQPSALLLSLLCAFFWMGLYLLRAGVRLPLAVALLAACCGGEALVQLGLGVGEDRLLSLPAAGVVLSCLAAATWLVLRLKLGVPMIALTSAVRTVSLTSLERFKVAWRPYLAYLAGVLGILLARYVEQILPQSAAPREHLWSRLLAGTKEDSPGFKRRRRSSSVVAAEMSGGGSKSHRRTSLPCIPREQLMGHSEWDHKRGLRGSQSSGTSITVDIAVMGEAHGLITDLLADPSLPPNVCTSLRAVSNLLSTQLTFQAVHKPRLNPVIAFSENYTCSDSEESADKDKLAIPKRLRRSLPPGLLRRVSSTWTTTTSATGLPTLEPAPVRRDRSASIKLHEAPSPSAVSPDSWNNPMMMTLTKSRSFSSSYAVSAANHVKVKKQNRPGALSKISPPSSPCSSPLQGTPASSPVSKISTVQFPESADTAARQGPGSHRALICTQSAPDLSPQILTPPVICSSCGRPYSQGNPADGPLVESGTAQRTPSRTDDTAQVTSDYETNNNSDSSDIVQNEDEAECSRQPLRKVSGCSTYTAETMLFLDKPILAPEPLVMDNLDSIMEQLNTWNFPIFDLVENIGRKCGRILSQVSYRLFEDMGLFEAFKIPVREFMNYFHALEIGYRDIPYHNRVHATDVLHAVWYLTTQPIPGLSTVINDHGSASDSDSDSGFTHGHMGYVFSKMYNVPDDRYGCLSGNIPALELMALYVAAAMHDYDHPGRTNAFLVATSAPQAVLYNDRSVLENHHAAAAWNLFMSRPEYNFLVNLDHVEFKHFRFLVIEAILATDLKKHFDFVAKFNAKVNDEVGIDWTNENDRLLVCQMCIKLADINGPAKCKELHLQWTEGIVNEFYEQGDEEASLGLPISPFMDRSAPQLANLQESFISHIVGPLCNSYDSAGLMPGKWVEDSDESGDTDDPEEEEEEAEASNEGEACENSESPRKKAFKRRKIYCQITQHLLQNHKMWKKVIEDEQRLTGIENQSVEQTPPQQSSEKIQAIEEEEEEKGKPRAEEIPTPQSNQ
Procedure: That is, for determining the obstructive activity against cyclic AMP phosphodiesterase, 10 ml of a solution obtained by adding 1 mmol of MgCl2 into 50 mmol of tris-hydrochloric acid buffer with pH 7.4 was added to the platelets obtained by further centrifuging the above-said rabbit PRP at 3,000 r.p.m. for 10 minutes, and the suspended platelets were ground by a Teflon potter type homogenizer. This was followed by two times of freezing and thawing treatment and 300-second fracturing with 200 watt supersonic waves. After additional 60-minute centrifugation with 100,000 G, the supernatant was collected to use it as a crude enzyme solution.
10 Milliliters of this crude buffer solution was added to a 1.5×20 cm DEAE-cellulose column which has previously been buffered with 50 mM of tris-acetate buffer (pH 6.0), followed by washing and elution with 30 ml of 50 mM tris-acetate buffer, and this buffer solution was subjected to linear gradient elution with 0 to 0.5 moles of sodium acetate-tris-acetatebuffer (total amount of elute was 300 ml.). The flow rate was 0.5 ml/min, and 5 ml of each fraction was batched out. […] This fraction was used as cyclic AMP phosphodiesterase.
0.1 Milliliter of an aqueous solution of each test compound of a specified concentration was mixed with 40 mmol of tris-hydrochloric acid buffer (pH 8.0, containing 50 μg of cow serum albumin and 4 mmol of MgCl2) containing predetermined 1.0 μmol of cyclic AMP (tritium cyclic AMP), and 0.2 ml of this mixed solution was used as substrate solution.
0.2 Milliliter of the above-prepared cyclic AMP phosphodiesterase of a predetermined concentration was added to said substrate solution and the mixture was reacted at 30° C. for 20 minutes, producing tritium 5'-AMP from the tritium cyclic AMP.
The reaction system was then immersed in boiling water for 2 minutes to stop the reaction, and then this reaction solution was cooled in ice water and, for converting the produced tritium 5'-AMP into tritium adenosine, the solution was added with 0.05 ml (1 mg/ml) of snake poison as 5'-nucleotidase and reacted at 30° C. for 10 minutes. The whole amount of this reaction solution was then added to a cation exchange resin (AG 500 W×4, 200-400 meshes, manufactured by Bio-Rad Co., column size: 0.5×1.5 cm), and the produced tritium anodesine alone was allowed to combine, washed with 6 ml of distilled water and eluted with 1.5 ml of 3 N-ammonia water. The whole quantity of the elutant was added with 10 ml of a triton-toluene type scintillator and the produced tritium adenosine was measured by a liquid scintillation counter to determine the phosphodiesterase activity.
In this way, the phosphodiesterase activation value (Vs) of the test compounds of the respective concentrations was determined, and the phosphodiesterase obstruction rate (%) was determined from said activation value (Vs) and control value (Vc) (obtained from water not containing any test compound) from the following formula: [formula] Known 1-methyl-3-isobutylxanthine was used as control.

[4] = Acute Toxicity Test; conditions: mouse, in vivo; male mice, oral administration
Procedure: The test compounds were administered orally to the mice and LD50 (mg/kg) of the compounds was determined.

[5] = test system: Wistar strain male rats; assay: Test of increasing effect of heart rate; format: in vivo, rat; conditions: 30 mg/kg oral, 60 minutes after the administration
Procedure: Wistar strain male rats, having 180-230 g of body weight, were abstained from food for 24 hours, the electrocardiograms introduced from the second induction period were recorded on oscillograph. The heart rate was calculated from the electrocardiograms by observing them for 10 seconds several times. […] 60 Minutes after the administration, the heart rate was measured and increasing effect of the heart rate was calculated. Generally, an average heart rate of an usual Wistar strain male rat is about 320 beat/minute.

[6] = concentration of the test compound solution 10^-5 mole
[7] = concentration of the test compound solution 10^-6 mole
[8] = concentration of the test compound solution 10^-5 mole, read-out: Inhibition effect on ADP-induced aggregation
[9] = concentration of the test compound solution 10^-6 mole, read-out: Inhibition effect on ADP-induced aggregation
[10] = read-out: Inhibition effect on ADP-induced aggregation

Structure (SMILES) | inhibition at 10 µM [1, 6] [%] | inhibition at 1 µM [1, 7] [%] | inhibition at 100 µM [2] [%] | inhibition at 10 µM [2, 8] [%] | inhibition at 1 µM [2, 9] [%] | IC50 [3] [nM] | LD50 [4] [mg/kg] | Increasing effect of heart rate [5] [Beat/min.] | inhibition at 0.1 µM [1] [%] | inhibition at 1 µM [1] [%] | inhibition at 10 µM [1] [%] | inhibition at 0.1 µM [2, 10] [%] | inhibition at 1 µM [2, 10] [%] | inhibition at 10 µM [2, 10] [%]
O=C(CCCOc1ccc2[nH]c(=O)ccc2c1)N1CCN(c2ccccc2)CC1 [No. 14, 6-[3-(4-Phenyl-1-piperazinylcarbonyl)propoxy]carbostyril] | 100 | 31 | 100 | 87.7 | 15.7 | 52 | > 1000 | 32 |  |  |  |  |  | 
CN(CC1CCCCO1)C(=O)CCCOc1ccc2[nH]c(=O)ccc2c1 (stereo not drawn) [No. 6, 6-{3-[N-Methyl-N-(2-tetrahydropyranylmethyl)aminocarbonyl]propoxy}carbostyril] | 48.1 | 3.8 | 75 | 24.6 | 14.7 | 52 | > 1000 | 40 |  |  |  |  |  | 
CN(C(=O)CCCOc1ccc2[nH]c(=O)ccc2c1)C1CCCCC1 [No. 39, 6-[3-(N--Methyl-N--cyclohexylaminocarbonyl)-propoxy]carbostyril, reference compound] |  |  |  |  |  | 16 |  | 104 | 57 | 90.2 | 90.5 | 32.8 | 62.1 | 91.7
